Experimental data reported in patent US20040071777A1, “Solid dispersions of nitrate active principles” (priority 2000, published 2004).

Tests used:
Assay type in all cases: physicochemical
[1] = Dissolution rate of NCX 1022, paddle method, distilled water with 1% w/v Tween 80; settings: within one hour
Protocol: The dissolution rate of the active ingredient from the solid dispersion produced in Example 6 has been compared with the dissolution rate of the pure active ingredient, using the paddle method described in F.U.X. In detail, 40 mg of the solid dispersion or 5 mg of pure NCX 1022 have been placed in a thermostated container at 37° C.±0.5° C. in 500 ml of distilled water including 1% w/v of Tween 80 and kept under stirring at 100 rpm. The quantity of NCX 1022 dissolved has been spectrophotometrically determined in continuous at a wavelength of 240 nm.

[2] = Dissolution rate of NCX4016, paddle method (F.U.X.), 1% sodium lauryl sulphate solution; settings: 900 ml, 37° C., 150 rpm
Protocol: The dissolution rate of the solid dispersion produced in the example 3 has been compared with the dissolution rate of the pure NCX4016 in micronised form using the paddle method described in F.U.X., according to the following operating conditions T=37° C.±0.5° C., stirring rate: 150 rpm, dissolution means: 1% sodium lauryl sulphate solution, dissolution volume: 900 ml.
The quantity of NCX4016 released has been spectrophotometrically evaluated in continuous at a wavelength 232 nm.

[3] = Dissolution rate of NCX4016 under condition of supersaturation, paddle method, distilled water; settings: after 5 minutes, from solid dispersion 2
Protocol: Three samples of microspheres have been exactly weighed so as to have a content of nitroaspirine of 30 mg. This quantity corresponds to about 4 times the solubility in water of the active principle.
The dissolution rate of the active principle from the above mentioned 3 solid dispersions has been compared with the dissolution rate of the pure active principle in micronized form, with the paddle method, described in F.U.X. using the following conditions:
dissolution means: distilled water
stirring rate: 100 r.p.m.
The quantity of NCX 4016 released has been evaluated spectrophotometrically in continuous at a wavelength 232 nm.
The samples have been taken by means of a peristaltic pump at 5 minutes intervals and for the total time of one hour.

SMILES	solubilisation [1] [%]	percentage of active principle dissolved ([2]; 5 minutes) [%]	percentage of active principle dissolved ([2]; 10 minutes) [%]	percentage of active principle dissolved ([2]; 15 minutes) [%]	percentage of active principle dissolved ([2]; 20 minutes) [%]	percentage of active principle dissolved ([2]; 25 minutes) [%]	percentage of active principle dissolved ([2]; 30 minutes) [%]	percentage of active principle dissolved ([2]; 35 minutes) [%]	percentage of active principle dissolved ([2]; 40 minutes) [%]	percentage of active principle dissolved ([2]; 45 minutes) [%]	percentage of active principle dissolved ([2]; 50 minutes) [%]	percentage of active principle dissolved ([2]; 55 minutes) [%]	percentage of active principle dissolved ([2]; 60 minutes) [%]	quantity dissolved relative to the solubility of the active ingredient in the dissolution means [3]
C[C@]12CCC(=O)C=C1CC[C@@H]1[C@@H]2[C@@H](O)C[C@@]2(C)[C@H]1CC[C@]2(O)C(=O)COC(=O)c1ccc(CO[N+](=O)[O-])cc1 [NCX 1022, hydroxycortisone 21-[(4′-nitroxymethyl)benzoate]]	4.3	–	–	–	–	–	–	–	–	–	–	–	–	–
CC(=O)Oc1ccccc1C(=O)Oc1cccc(CO[N+](=O)[O-])c1 [NCX4016 micronized, 3-(nitroxymethyl)phenyl Ester of 2-acetoxybenzoic Acid]	–	17.9	39.2	53.5	60.7	71.4	77	80.9	84.4	87	88.9	90.6	91.4	about twice
